Laboratory results taken from US20230240953A1, “AN ANTIMICROBIAL COMPOSITION, PROCESS FOR PREPARING THE SAME AND METHOD OF USE THEREOF” (ISP INVESTMENTS LLC, priority 2020, published 2023).
Where two headings read alike, the source gives them in different places.

Columns and labels:
Assay in all cases: Checkerboard microplate synergy assay, compound A = HPB
Type in all cases: cell-based
[1] = system: Aspergillus brasiliensis 16404; parameters: key to SI index (Synergy Index = Qa/QA+Qb/QB): SI = Qa/QA + Qb/QB (MICs in ppm); <1 synergy, =1 additive, >1 antagonism; details: for MIC: Aspergillus brasiliensis, 16404, compound B alone, read-out: Compound B (Qb): MIC of compound B acting alone; for Interaction / SI index (Synergy Index = Qa/QA+Qb/QB): HPB + compound B
Method: (§1) The synergistic antimicrobial effect was determined using a commonly accepted method described by Kull A. C, Eisman, P. C. Sylwestrowicz, H. D. and Mayer, R. L. 1961. Applied Microbiology, 9:538-541
(§2) Briefly, the standard checkerboard approach was used to make all the dilutions. HPB (compound A) solution was prepared and then serially diluted in DMSO using the 96-well dilution plate. Automated liquid handler was then used to stamp multiple assay plates using this dilution plate. Each well of the assay plate was then supplemented with a predetermined concentration of the second antimicrobial (compound B). The final concentration of DMSO was kept constant across the plate for each assay, not exceeding 3% (w/w).
To evaluate antifungal activity of the actives, freshly prepared A. brasiliensis spores were harvested and resuspended in Yeast and Malt Broth (YMB). The spore suspension was then added to the appropriate plates with the final density being 10^5 cfu/ml.
(§3) To evaluate antibacterial activity of the actives, freshly prepared S. aureus and B. cepacia cells were harvested and resuspended in Trypticase Soy Broth (TSB). The cell suspension was then added to the wells of the appropriate plates with the final cell density being 10^6 cfu/ml. Fungal plates were incubated at 28° C. for 4-5 days, prior to being evaluated. Bacterial plates were incubated for 48 hours at 35° C. prior to being evaluated.
(§4) Synergy Index (SI)=Qa/QA+Qb/QB • Qa is the MIC of compound A (HPB) in ppm, when compound A is being used in combination with compound B • QA is the MIC of compound A (HPB) in ppm, acting alone • Qb is the MIC of compound B in ppm, when the compound B is being used in combination with compound A • QB is the MIC of compound B in ppm, acting alone Each ratio Qa/QA and Qb/QB is sometimes referred to as Fractional Inhibitory Concentrations (FICs) of compounds A and B, respectively, when these two compounds are being used in combination with one another. The sum of FICs constitute the Synergy Index (SI). The synergistic effect is indicated if the Synergy Index is below one (SI<1). An additive effect is indicated if the Synergy Index is equal to one (SI=1). An antagonistic effect is indicated if synergy index is greater than one (SI>1). The lower the SI index the greater the synergy.

[2] = system: Burkholderia cepacia 25416; details: for Interaction / SI index (Synergy Index = Qa/QA+Qb/QB): HPB + compound B
Method: as §1, §2, §3, §4

[3] = system: Staphylococcus aureus 6538; details: for Interaction / SI index (Synergy Index = Qa/QA+Qb/QB): HPB + compound B
Method: as §1, §2, §3, §4

[4] = Burkholderia cepacia, 25416, B. cepacia, compound B alone, read-out: Compound B (Qb): MIC of compound B acting alone
[5] = Staphylococcus aureus, 6538, S. aureus, compound B alone, read-out: Compound B (QB): MIC of compound B acting alone

Compound | MIC [1] [µg/mL] | Interaction [1] | SI index (Synergy Index = Qa/QA+Qb/QB) [1] | Compound B (Qb): MIC of compound B when used in combination with HPB [1] | Interaction ([2]; B. cepacia) | SI index (Synergy Index = Qa/QA+Qb/QB) ([2]; B. cepacia) | Compound B (Qb): MIC of compound B when used in combination with HPB ([2]; B. cepacia) | Compound B (Qb): MIC of compound B acting alone [1] | other results
CCCC(O)CO (stereo not shown) [1,2-Pentanediol] | 100000 | Additive (An additive effect is indicated if the Synergy Index is equal to one (SI=1)) | 1 | 50,000 ppm |  |  |  |  | 
CCCCCCCC(=O)NO [Caprylhydroxamic acid] | 250 | Synergistic (The synergistic effect is indicated if the Synergy Index is below one (SI<1)) | 0.5625 | 125 ppm | synergistic | 0.75 | 31.3 ppm |  | MIC [2, 4]: 125 µg/mL; Interaction ([3]; S. aureus): synergistic; SI index (Synergy Index = Qa/QA+Qb/QB) ([3]; S. aureus): ≤0.625; Compound B (Qb): MIC of compound B when used in combination with HPB ([3]; S. aureus): 125 ppm; MIC [3, 5]: 1000 µg/mL
O=C(O)CN(CCN(CC(=O)O)CC(=O)O)CC(=O)O [EDTA] |  | Synergistic (The synergistic effect is indicated if the Synergy Index is below one (SI<1)) | 0.56 | 800 ppm |  |  |  | 12,500 ppm | 
CCCCCCCCCCCCCC[N+](C)(C)C.[Br-] [Tetradecyl trimethyl ammonium bromide] | 25 | Synergistic (The synergistic effect is indicated if the Synergy Index is below one (SI<1)) | 0.375 | 3.1 ppm | synergistic | 0.625 | 6.3 ppm |  | MIC [2, 4]: 50 µg/mL; Interaction ([3]; S. aureus): synergistic; SI index (Synergy Index = Qa/QA+Qb/QB) ([3]; S. aureus): ≤0.5; Compound B (Qb): MIC of compound B when used in combination with HPB ([3]; S. aureus): 0.4 ppm; MIC [3, 5]: 1.6 µg/mL
CCCCNC(=O)OCC#CI [lodopropynyl butylcarbamate (IPBC), lodopropynyl butylcarbamate] |  |  |  |  | synergistic | 0.508 | 2 ppm |  | Compound B (QB): MIC of compound B acting alone ([2]; B. cepacia, compound B alone): 250 ppm
OCCCO [1,3-Propanediol] |  | Additive (An additive effect is indicated if the Synergy Index is equal to one (SI=1)) | ≤1 | 100,000 ppm |  |  |  | ≥200,000 ppm | 
Glyceryl caprylate/caprate |  | Synergistic (The synergistic effect is indicated if the Synergy Index is below one (SI<1)) | 0.75 | 800 ppm |  |  |  | 3,125 ppm | 
O=C(O)C=Cc1ccccc1 [Cinnamic acid] | 500 | Additive (An additive effect is indicated if the Synergy Index is equal to one (SI=1)) | 1-2 | 500 ppm |  |  |  |  | 
O=C(O)CC[C@@H](C(=O)O)N(CC(=O)O)CC(=O)O [GLDA] |  | Synergistic (The synergistic effect is indicated if the Synergy Index is below one (SI<1)) | 0.75 | 1,600 ppm |  |  |  | 6,250 ppm | 
OCc1ccccc1 [Benzyl alcohol] | 5000 | Synergistic (The synergistic effect is indicated if the Synergy Index is below one (SI<1)) | 0.75 | 2,500 ppm |  |  |  |  | Interaction ([3]; S. aureus): synergistic; SI index (Synergy Index = Qa/QA+Qb/QB) ([3]; S. aureus): ≤0.625; Compound B (Qb): MIC of compound B when used in combination with HPB ([3]; S. aureus): 625 ppm; MIC [3, 5]: 5000 µg/mL
Hexyl glycerin |  | Additive (An additive effect is indicated if the Synergy Index is equal to one (SI=1)) | 1 | 1,600 ppm |  |  |  | 3,125 ppm | 
Cc1occc(=O)c1O [Maltol] | 2000 | Synergistic (The synergistic effect is indicated if the Synergy Index is below one (SI<1)) | 0.75 | 1,000 ppm |  |  |  |  | 
COc1ccc(C=O)cc1OC [Veratraldehyde] | 2000 | Synergistic (The synergistic effect is indicated if the Synergy Index is below one (SI<1)) | 0.625 | 1,000 ppm | synergistic | 0.75 | 1000 ppm |  | MIC ([2]; Burkholderia cepacia, 25416, read-out: Compound B (Qb): MIC of compound B acting alone): 2000 µg/mL; Interaction ([3]; S. aureus): synergistic; SI index (Synergy Index = Qa/QA+Qb/QB) ([3]; S. aureus): ≤0.625; Compound B (Qb): MIC of compound B when used in combination with HPB ([3]; S. aureus): 1,000 ppm; MIC ([3]; Staphylococcus aureus, 6538, read-out: Compound B (QB): MIC of compound B acting alone): ≥ 8000 µg/mL
OCCCc1ccccc1 |  |  |  |  | synergistic | 0.75 | 156 ppm |  | Compound B (QB): MIC of compound B acting alone ([2]; B. cepacia, compound B alone): 625 ppm; Interaction ([3]; S. aureus): synergistic; SI index (Synergy Index = Qa/QA+Qb/QB) ([3]; S. aureus): ≤0.5625; Compound B (Qb): MIC of compound B when used in combination with HPB ([3]; S. aureus): 156 ppm; Compound B (QB): MIC of compound B acting alone ([3]; S. aureus, compound B alone): 2,500 ppm
COc1ccc(C(=O)O)cc1 [Anisic acid] |  | Synergistic (The synergistic effect is indicated if the Synergy Index is below one (SI<1)) | 0.75 | 250 ppm |  |  |  | 1,000 ppm | 
CCCCC(O)CO (stereo not shown) [1,2-Hexanediol] | 12500 | Additive (An additive effect is indicated if the Synergy Index is equal to one (SI=1)) | 1 | 6,300 ppm |  |  |  |  | 
CCCCCCC(O)CO (stereo not shown) [1,2-Octanediol] | 1600 | Synergistic (The synergistic effect is indicated if the Synergy Index is below one (SI<1)) | 0.56 | 100 ppm |  |  |  |  | 
CCCCC(CC)COCC(O)CO (stereo not shown) [Ethylhexylglycerin] |  | Synergistic (The synergistic effect is indicated if the Synergy Index is below one (SI<1)) | 0.56 | 100 ppm |  |  |  | 1,600 ppm | 
O=C(O)c1ccccc1 [Benzoic acid] | 1000 | Synergistic (The synergistic effect is indicated if the Synergy Index is below one (SI<1)) | 0.75 | 500 ppm |  |  |  |  | 
O=P(O)(O)O[C@H]1[C@H](OP(=O)(O)O)[C@@H](OP(=O)(O)O)[C@H](OP(=O)(O)O)[C@@H](OP(=O)(O)O)[C@H]1OP(=O)(O)O [Phytic acid] | 12500 | Synergistic (The synergistic effect is indicated if the Synergy Index is below one (SI<1)) | 0.75 | 3,125 ppm |  |  |  |  | 
OCCc1ccccc1 [Phenethyl alcohol] |  |  |  |  | synergistic | 0.625 | 125 ppm |  | MIC [2, 4]: 1000 µg/mL; Interaction ([3]; S. aureus): synergistic; SI index (Synergy Index = Qa/QA+Qb/QB) ([3]; S. aureus): ≤0.75; Compound B (Qb): MIC of compound B when used in combination with HPB ([3]; S. aureus): 2,000 ppm; MIC [3, 5]: ≥ 4000 µg/mL
[F-].[Na+] [Sodium fluoride] |  |  |  |  | synergistic | ≤0.625 | 10,000 ppm |  | Compound B (QB): MIC of compound B acting alone ([2]; B. cepacia, compound B alone): ≥200,000 ppm
